Test results taken from the NIST ThermoML archive (doi:10.1021/je049888n).

Columns and labels:
[1] = xn = mol fraction of the nth substance listed

C1CCNCC1 [piperidine]
Conditions | surface tension liquid-gas [mN/m]
293.15 K | 30.11
298.15 K | 29.56
303.15 K | 29.09
313.15 K | 27.9
323.15 K | 27

C1CCNCC1 [piperidine] + O
surface tension liquid-gas [mN/m], [1]
Conditions | 293.15 K | 298.15 K | 303.15 K | 313.15 K | 323.15 K
x1 = 0.0076 | 57.25 | 56.85 | 56.45 | 55.56 | 54.62
x1 = 0.013 | 43.84 | 43.58 | 43.32 | 41.58 | 41.41
x1 = 0.0228 | 38.56 | 38.27 | 37.98 | 37.43 | 37.18
x1 = 0.0458 | 37.78 | 37.2 | 36.62 | 35.76 | 34.37
x1 = 0.092 | 35.44 | 34.99 | 34.54 | 33.69 | 32.61
x1 = 0.1542 | 34.34 | 34.02 | 33.7 | 32.67 | 31.8
x1 = 0.2672 | 33.9 | 33.39 | 32.88 | 32.1 | 31.26
x1 = 0.378 | 33.27 | 32.75 | 32.23 | 31.42 | 30.4
x1 = 0.5657 | 31.38 | 31.15 | 30.92 | 30.01 | 29.2
x1 = 0.7524 | 31.02 | 30.42 | 29.82 | 29.01 | 28.1
x1 = 1 | 30.11 | 29.56 | 29.09 | 27.9 | 27

C1CCNC1 [pyrrolidine]
Conditions | surface tension liquid-gas [mN/m]
293.15 K | 30.27
298.15 K | 29.75
303.15 K | 29.02
313.15 K | 27.87
323.15 K | 26.75

C1CCNC1 [pyrrolidine] + O
surface tension liquid-gas [mN/m], [1]
Conditions | 293.15 K | 298.15 K | 303.15 K | 313.15 K | 323.15 K
x1 = 0.0156 | 55.61 | 55.32 | 54.98 | 54.1 | 53.26
x1 = 0.0564 | 46.07 | 45.61 | 45.21 | 44.76 | 43.89
x1 = 0.1082 | 41.7 | 41.19 | 40.92 | 40.19 | 39.17
x1 = 0.1792 | 39.7 | 39.74 | 39 | 38.01 | 37.3
x1 = 0.3039 | 37.53 | 37.09 | 36.69 | 35.68 | 34.74
x1 = 0.4212 | 35.97 | 35.45 | 35.11 | 34.44 | 33.15
x1 = 0.5219 | 34.87 | 34.4 | 33.99 | 32.97 | 32.07
x1 = 0.6093 | 33.89 | 33.54 | 33.07 | 31.95 | 31.05
x1 = 0.6858 | 32.99 | 32.59 | 32.39 | 31.11 | 30.25
x1 = 0.7844 | 32.1 | 31.45 | 31.3 | 30.4 | 29.2
x1 = 0.9161 | 31.07 | 30.42 | 30.13 | 29.02 | 27.83
x1 = 1 | 30.27 | 29.75 | 29.02 | 27.87 | 26.75

O [water] + C1CCNC1
[1], x2 = 0
Conditions | surface tension liquid-gas [mN/m]
293.15 K | 72.7
298.15 K | 72.05
303.15 K | 71.28
313.15 K | 69.32
323.15 K | 67.88

O [water] + C1CCNCC1
[1], x2 = 0
Conditions | surface tension liquid-gas [mN/m]
293.15 K | 72.7
298.15 K | 72.05
303.15 K | 71.28
313.15 K | 69.32
323.15 K | 67.88
